Like-named read-outs stand apart in the source and are kept apart here.
Legend:
[1] = target: T1, ALK (Homo sapiens, UniProt Q9UM73); assay: Kinome screen, ALK; format: binding; details: screened at 1 μM
T1 construct: made in house; host or cells: T7 phage in E. coli (BL21-derived) or HEK-293
Procedure: (§1) Kinase-tagged T7 phage strains were grown in parallel in 24-well blocks in an E. coli host derived from the BL21 strain. E. coli were grown to log-phase and infected with T7 phage from a frozen stock (multiplicity of infection=0.4) and incubated with shaking at 32° C. until lysis (90-150 minutes). The lysates were centrifuged (6,000×g) and filtered (0.2 μm) to remove cell debris. The remaining kinases were produced in HEK-293 cells and subsequently tagged with DNA for qPCR detection.
(§2) Streptavidin-coated magnetic beads were treated with biotinylated small molecule ligands for 30 minutes at room temperature to generate affinity resins for kinase assays. The liganded beads were blocked with excess biotin and washed with blocking buffer (SeaBlock (Pierce), 1% BSA, 0.05% Tween 20, 1 mM DTT) to remove unbound ligand and to reduce non-specific phage binding. […] Test compounds were prepared as 40× stocks in 100% DMSO and directly diluted into the assay. All reactions were performed in polypropylene 384-well plates in a final volume of 0.04 ml. […] The beads were then re-suspended in elution buffer (1×PBS, 0.05% Tween 20, 0.5 μM non-biotinylated affinity ligand) and incubated at room temperature with shaking for 30 minutes. The kinase concentration in the eluates was measured by qPCR.

[2] = target: T2, SLK (Homo sapiens, UniProt Q9H2G2); assay: Kinome screen, SLK; format: binding; details: screened at 1 μM
T2 construct: made in house; host or cells: T7 phage in E. coli (BL21-derived) or HEK-293
Procedure: as §1, §2

[3] = Ocular pharmacokinetics in rabbit eyes; format: in vivo; details: for half-life: rabbit, vitreous, solution formulation in 2% 2-hydroxypropyl-β-cyclodextrin, intravitreal 50 μg/eye
Procedure: The objective of this assay was to determine the pharmacokinetics of a test compound in rabbit ocular tissues.
1-(2-(6-(2-ethyl-5-fluoro-4-hydroxyphenyl)-4-fluoro-1H-indazol-3-yl)-1,4,6,7-tetrahydro-5H-imidazo[4,5-c]pyridin-5-yl)-2-morpholinoethan-1-one (1), prepared in Example 2, was dissolved in 2% 2-hydroxypropyl-β-cyclodextrin to attain a target concentration of 1 mg/mL. Bilateral intravitreal injection (50 μL/eye) of the solution of test compound was administered to New Zealand white rabbits (50 μg/eye). The test compound concentration was measured in ocular tissues: vitreous, aqueous, retina/choroid and iris-ciliary body at pre-determined time points post injection (30 min, 4 h, 1 d, 3 d, 7 d, 14 d). Two rabbits (four eyes) were dosed for each time point.
A suspension formulation was prepared by combining compound 1 of Example 2 (Form 1), with 0.5% hydroxypropyl methylcellulose (HPMC E5)+0.02% Tween 80 in normal saline to attain a target concentration of 5 mg/mL, 20 mg/mL and 80 mg/mL for the 0.25 mg/eye, 1 mg/eye and 4 mg/eye doses respectively. Bilateral intravitreal injection (50 μL/eye) of the suspension of test compound was administered to New Zealand white rabbits. The test compound concentration was measured in ocular tissues as in the solution formulation assay at 30 min, 4 h, 24 h, 72 h, 7 d, 14 d, 28 d, 56 d and 84 d post injection. For the 4 mg/eye dose group, an additional time point at 168 d post injection was also collected. […] The clearance rate is consistent with the solubility of compound 1 in the vehicle and the ocular pharmacokinetic behavior in the solution formulation. […] Therefore, it is plausible that drug exposure is longer than that observed in this study. The drug concentration in plasma was measured and found to be at least 3 orders of magnitude lower than the concentration in vitreous tissue at all three concentrations.
A suspension formulation was prepared by combining compound 1 of Example 5 (Form 2), with 0.5% hydroxypropyl methylcellulose (HPMC E5)+0.02% Tween 80 in normal saline to attain a target concentration of […], 1 mg/mL, 2 mg/mL and 20 mg/mL for the 0.02 mg/eye, 0.05 mg/eye, 0.1 mg/eye and 1 mg/eye doses respectively. Bilateral intravitreal injection (50 μL/eye) of the suspension of test compound was administered to Dutch Belted rabbits. The test compound concentration was measured in vitreous humor, aqueous humor, iris-ciliary body, retina, retinal pigment epithelial/choroidal cells and plasma at 30 min, 7 d, 14 d, 28 d, 42 d and 56 d post injection. […] Therefore, it is plausible that drug exposure is longer than that observed in this study. The drug concentration in plasma was measured and found to be at least 3 orders of magnitude lower than the concentration in vitreous tissue at all three concentrations. The 3 orders of magnitude correspond to a logarithmic scale (ie 1000 on a non-logarithmic scale).

T1 sequence (Q9UM73 19-1620): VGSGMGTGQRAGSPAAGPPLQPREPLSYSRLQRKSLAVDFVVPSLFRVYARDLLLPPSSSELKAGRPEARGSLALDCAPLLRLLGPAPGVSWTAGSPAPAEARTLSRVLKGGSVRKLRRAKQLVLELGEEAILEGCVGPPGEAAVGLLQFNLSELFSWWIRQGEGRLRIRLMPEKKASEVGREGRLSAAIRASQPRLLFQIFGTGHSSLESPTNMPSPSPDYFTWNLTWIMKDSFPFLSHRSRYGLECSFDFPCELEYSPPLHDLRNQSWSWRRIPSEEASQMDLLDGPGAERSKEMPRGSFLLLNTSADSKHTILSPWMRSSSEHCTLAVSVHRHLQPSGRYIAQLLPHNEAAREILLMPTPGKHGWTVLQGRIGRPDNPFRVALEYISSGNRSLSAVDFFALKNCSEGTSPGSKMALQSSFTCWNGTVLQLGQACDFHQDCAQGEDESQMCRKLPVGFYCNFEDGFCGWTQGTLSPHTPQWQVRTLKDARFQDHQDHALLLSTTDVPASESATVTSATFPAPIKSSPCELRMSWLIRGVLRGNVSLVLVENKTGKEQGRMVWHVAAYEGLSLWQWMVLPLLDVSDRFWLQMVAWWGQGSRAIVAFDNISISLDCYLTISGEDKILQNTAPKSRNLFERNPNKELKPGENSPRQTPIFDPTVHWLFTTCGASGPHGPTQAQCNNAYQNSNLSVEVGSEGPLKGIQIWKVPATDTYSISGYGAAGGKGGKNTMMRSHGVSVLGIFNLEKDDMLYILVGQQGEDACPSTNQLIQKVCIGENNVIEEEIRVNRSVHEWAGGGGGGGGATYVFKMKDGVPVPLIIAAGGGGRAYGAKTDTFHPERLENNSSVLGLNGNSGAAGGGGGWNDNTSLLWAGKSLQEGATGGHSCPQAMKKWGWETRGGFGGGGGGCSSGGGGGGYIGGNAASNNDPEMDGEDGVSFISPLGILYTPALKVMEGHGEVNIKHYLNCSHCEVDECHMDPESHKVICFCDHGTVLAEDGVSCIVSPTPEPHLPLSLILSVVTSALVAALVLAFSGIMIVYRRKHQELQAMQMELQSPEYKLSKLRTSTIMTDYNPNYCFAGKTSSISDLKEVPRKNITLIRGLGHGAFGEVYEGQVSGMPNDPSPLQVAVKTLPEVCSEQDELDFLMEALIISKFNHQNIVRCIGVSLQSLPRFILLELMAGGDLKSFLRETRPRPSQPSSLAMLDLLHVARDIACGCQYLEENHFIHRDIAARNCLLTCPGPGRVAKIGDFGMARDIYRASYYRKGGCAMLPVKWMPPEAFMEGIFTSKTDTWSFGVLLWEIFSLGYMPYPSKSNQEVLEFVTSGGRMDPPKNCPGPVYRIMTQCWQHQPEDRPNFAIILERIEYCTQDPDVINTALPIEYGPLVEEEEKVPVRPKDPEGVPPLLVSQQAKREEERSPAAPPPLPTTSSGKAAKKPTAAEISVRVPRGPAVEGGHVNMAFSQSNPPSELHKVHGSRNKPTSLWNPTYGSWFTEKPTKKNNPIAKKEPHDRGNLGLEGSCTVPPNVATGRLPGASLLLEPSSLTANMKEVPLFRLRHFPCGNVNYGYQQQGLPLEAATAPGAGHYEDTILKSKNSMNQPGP
T2 sequence (Q9H2G2 whole entry): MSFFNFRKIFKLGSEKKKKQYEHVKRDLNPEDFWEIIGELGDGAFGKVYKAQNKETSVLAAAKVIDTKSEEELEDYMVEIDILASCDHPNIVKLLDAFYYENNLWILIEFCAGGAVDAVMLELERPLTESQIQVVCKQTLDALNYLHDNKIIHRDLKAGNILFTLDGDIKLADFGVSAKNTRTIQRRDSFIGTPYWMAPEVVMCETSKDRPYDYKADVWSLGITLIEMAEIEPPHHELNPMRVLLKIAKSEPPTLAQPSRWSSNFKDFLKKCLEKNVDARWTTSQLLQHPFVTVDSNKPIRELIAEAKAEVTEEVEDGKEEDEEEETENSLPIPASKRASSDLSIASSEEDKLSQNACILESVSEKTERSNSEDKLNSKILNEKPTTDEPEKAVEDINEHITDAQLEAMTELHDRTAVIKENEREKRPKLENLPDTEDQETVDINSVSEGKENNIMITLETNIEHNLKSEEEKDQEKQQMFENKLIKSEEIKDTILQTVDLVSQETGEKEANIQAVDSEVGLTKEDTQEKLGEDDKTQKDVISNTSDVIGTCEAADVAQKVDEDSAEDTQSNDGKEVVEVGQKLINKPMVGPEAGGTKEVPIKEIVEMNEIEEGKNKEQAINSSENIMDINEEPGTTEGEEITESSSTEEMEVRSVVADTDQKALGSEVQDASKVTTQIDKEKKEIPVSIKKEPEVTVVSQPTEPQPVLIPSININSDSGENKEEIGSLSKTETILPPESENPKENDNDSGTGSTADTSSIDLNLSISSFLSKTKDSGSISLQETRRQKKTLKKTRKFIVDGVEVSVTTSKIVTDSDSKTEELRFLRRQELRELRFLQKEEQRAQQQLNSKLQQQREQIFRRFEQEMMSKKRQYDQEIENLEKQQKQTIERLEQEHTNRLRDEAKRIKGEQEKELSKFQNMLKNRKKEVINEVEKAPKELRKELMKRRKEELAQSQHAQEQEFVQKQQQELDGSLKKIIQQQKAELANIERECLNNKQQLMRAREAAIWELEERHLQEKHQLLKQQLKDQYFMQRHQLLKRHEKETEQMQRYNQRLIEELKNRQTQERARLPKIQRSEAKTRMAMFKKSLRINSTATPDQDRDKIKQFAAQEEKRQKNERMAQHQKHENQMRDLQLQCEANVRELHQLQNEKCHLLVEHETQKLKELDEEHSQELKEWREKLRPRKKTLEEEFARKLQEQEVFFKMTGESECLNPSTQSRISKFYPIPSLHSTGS

CCc1cc(O)c(F)cc1-c1cc(F)c2c(-c3nc4c([nH]3)CCN(C(=O)CN3CCOCC3)C4)n[nH]c2c1 [Compound 1, 1-(2-(6-(2-ethyl-5-fluoro-4-hydroxyphenyl)-4-fluoro-1H-indazol-3-yl)-1,4,6,7-tetrahydro-5H-imidazo[4,5-c]pyridin-5-yl)-2-morpholinoethan-1-one]
inhibition at 1 µM [1]: 75% | inhibition at 1 µM [2]: 100% | ocular exposure at 24 weeks ([3]; Form 1 suspension, intravitreal 4 mg/eye, New Zealand white rabbits): Sustained exposure | drug concentration in plasma lower than concentration in vitreous tissue ([3]; Form 1 suspension, intravitreal 0.25, 1 and 4 mg/eye, New Zealand white rabbits): at least 3 orders of magnitude | ocular exposure at 12 weeks (84 d) ([3]; Form 1 suspension, intravitreal, all doses (0.25, 1, 4 mg/eye), New Zealand white rabbits): Robust sustained exposure | drug concentration in plasma lower than concentration in vitreous tissue ([3]; Form 2 suspension, intravitreal 0.02, 0.05, 0.1 and 1 mg/eye, Dutch Belted rabbits): at least 3 orders of magnitude | change of drug concentration in vitreous tissue from 30 min to last time point tested ([3]; Form 2 suspension, intravitreal 0.02-1 mg/eye, Dutch Belted rabbits, last time point 28-56 d): very gradual decrease | half-life ([3]; New Zealand white, 50 μg/eye, New Zealand white rabbits, read-out: terminal half-life, vitreous tissue (converted)): ~48 h | concentration in plasma versus vitreous tissue ([3]; rabbit eyes, single intravitreal injection (summary of Assay 7)): at least three orders of magnitude lower | half-life ([3]; New Zealand white rabbits, read-out: half-life of initial decrease in concentration, vitreous tissue (converted)): ~9 h
